Assay results from publication PMC12616683, “In Vivo Atlas of Neuroprotective Cyclic Dipeptides Derived from Food Gelatin Using Peptidomics and Feature-Based Molecular Networking” (Journal of Agricultural and Food Chemistry, 2025).
Peptide text beside a SMILES is read from it.

Test: FBMN analysis of short peptides in small intestine contents and serum after oral DHG
Details: serum, time points 0.5-4 h after oral DHG

Structure (SMILES) | time detected in serum (FBMN)
O=C1CCC(C(=O)NC(Cc2ccccc2)C(=O)O)N1 (stereo not drawn) [PyroGlu-Phe] | only detected in the first hour
N[C@@H](CC(=O)O)C(=O)N[C@@H](Cc1ccccc1)C(=O)O [Asp-Phe] (H-Asp-Phe-OH) | only detected in the first hour

Same assay, conditions: small intestine contents, 30 min after oral DHG, C57 mice; FBMN feature intensity, peptides smaller than 690 Da

Structure (SMILES) | Peptide signal (feature intensity) in the small intestine, 30 min
CC(C)[C@H](NC(=O)[C@@H]1CCC(=O)N1)C(=O)O [PyroGlu-Val] (HELM PEPTIDE1{[Glp].V}$$$$V2.0) | 0.00E+00
O=C1CCC(C(=O)NC(Cc2ccccc2)C(=O)O)N1 (stereo not drawn) [PyroGlu-Phe] | 0.00E+00
CC[C@H](C)[C@H](NC(=O)[C@@H](N)Cc1ccccc1)C(=O)N[C@@H](CCCCN)C(=O)O [Phe-Ile-Lys] (H-Phe-Ile-Lys-OH) | 0.00E+00
N[C@@H](CC(=O)O)C(=O)N[C@@H](Cc1ccccc1)C(=O)O [Asp-Phe] (H-Asp-Phe-OH) | 3.76E+07
CC(C)CC(N)C(=O)NC(C(=O)O)C(C)C (stereo not drawn) [Leu-Val] (H-Leu-Val-OH; configuration not given here) | 4.22E+06
CC(C)CC(NC(=O)C1CCCN1)C(=O)O (stereo not drawn) [Pro-Leu] (H-Pro-Leu-OH; configuration not given here) | 5.47E+07
N[C@@H](CC(=O)O)C(=O)N1CCC[C@H]1C(=O)O [Asp-Pro] (H-Asp-Pro-OH) | 0.00E+00
CSCC[C@H](NC(=O)[C@@H](N)C(C)C)C(=O)O [Val-Met] (H-Val-Met-OH) | 3.30E+06
NC(Cc1ccccc1)C(=O)N1CCCC1C(=O)O (stereo not drawn) [Phe-Pro] (H-Phe-Pro-OH; configuration not given here) | 1.25E+06
CC(C)[C@H](NC(=O)[C@@H](N)CO)C(=O)O [Ser-Val] (H-Ser-Val-OH) | 0.00E+00

Same assay, conditions: small intestine contents, 60 min after oral DHG, C57 mice; FBMN feature intensity, peptides smaller than 690 Da

Structure (SMILES) | Peptide signal (feature intensity) in the small intestine, 60 min
CC(C)[C@H](NC(=O)[C@@H]1CCC(=O)N1)C(=O)O [PyroGlu-Val] (HELM PEPTIDE1{[Glp].V}$$$$V2.0) | 7.64E+06
O=C1CCC(C(=O)NC(Cc2ccccc2)C(=O)O)N1 (stereo not drawn) [PyroGlu-Phe] | 1.13E+07
CC[C@H](C)[C@H](NC(=O)[C@@H](N)Cc1ccccc1)C(=O)N[C@@H](CCCCN)C(=O)O [Phe-Ile-Lys] (H-Phe-Ile-Lys-OH) | 1.05E+05
N[C@@H](CC(=O)O)C(=O)N[C@@H](Cc1ccccc1)C(=O)O [Asp-Phe] (H-Asp-Phe-OH) | 6.08E+07
CC(C)CC(N)C(=O)NC(C(=O)O)C(C)C (stereo not drawn) [Leu-Val] (H-Leu-Val-OH; configuration not given here) | 7.59E+06
CC(C)CC(NC(=O)C1CCCN1)C(=O)O (stereo not drawn) [Pro-Leu] (H-Pro-Leu-OH; configuration not given here) | 1.43E+07
N[C@@H](CC(=O)O)C(=O)N1CCC[C@H]1C(=O)O [Asp-Pro] (H-Asp-Pro-OH) | 7.32E+06
CSCC[C@H](NC(=O)[C@@H](N)C(C)C)C(=O)O [Val-Met] (H-Val-Met-OH) | 7.38E+06
NC(Cc1ccccc1)C(=O)N1CCCC1C(=O)O (stereo not drawn) [Phe-Pro] (H-Phe-Pro-OH; configuration not given here) | 7.11E+05
CC(C)[C@H](NC(=O)[C@@H](N)CO)C(=O)O [Ser-Val] (H-Ser-Val-OH) | 5.23E+06

Same assay, conditions: small intestine contents, 120 min after oral DHG, C57 mice; FBMN feature intensity, peptides smaller than 690 Da

Structure (SMILES) | Peptide signal (feature intensity) in the small intestine, 120 min
CC(C)[C@H](NC(=O)[C@@H]1CCC(=O)N1)C(=O)O [PyroGlu-Val] (HELM PEPTIDE1{[Glp].V}$$$$V2.0) | 0.00E+00
O=C1CCC(C(=O)NC(Cc2ccccc2)C(=O)O)N1 (stereo not drawn) [PyroGlu-Phe] | 0.00E+00
CC[C@H](C)[C@H](NC(=O)[C@@H](N)Cc1ccccc1)C(=O)N[C@@H](CCCCN)C(=O)O [Phe-Ile-Lys] (H-Phe-Ile-Lys-OH) | 8.61E+05
N[C@@H](CC(=O)O)C(=O)N[C@@H](Cc1ccccc1)C(=O)O [Asp-Phe] (H-Asp-Phe-OH) | 1.22E+08
CC(C)CC(N)C(=O)NC(C(=O)O)C(C)C (stereo not drawn) [Leu-Val] (H-Leu-Val-OH; configuration not given here) | 0.00E+00
CC(C)CC(NC(=O)C1CCCN1)C(=O)O (stereo not drawn) [Pro-Leu] (H-Pro-Leu-OH; configuration not given here) | 0.00E+00
N[C@@H](CC(=O)O)C(=O)N1CCC[C@H]1C(=O)O [Asp-Pro] (H-Asp-Pro-OH) | 1.15E+07
CSCC[C@H](NC(=O)[C@@H](N)C(C)C)C(=O)O [Val-Met] (H-Val-Met-OH) | 0.00E+00
NC(Cc1ccccc1)C(=O)N1CCCC1C(=O)O (stereo not drawn) [Phe-Pro] (H-Phe-Pro-OH; configuration not given here) | 1.63E+06
CC(C)[C@H](NC(=O)[C@@H](N)CO)C(=O)O [Ser-Val] (H-Ser-Val-OH) | 0.00E+00

Same assay, conditions: small intestine contents, 240 min after oral DHG, C57 mice; FBMN feature intensity, peptides smaller than 690 Da

Structure (SMILES) | Peptide signal (feature intensity) in the small intestine, 240 min
CC(C)[C@H](NC(=O)[C@@H]1CCC(=O)N1)C(=O)O [PyroGlu-Val] (HELM PEPTIDE1{[Glp].V}$$$$V2.0) | 1.03E+07
O=C1CCC(C(=O)NC(Cc2ccccc2)C(=O)O)N1 (stereo not drawn) [PyroGlu-Phe] | 5.69E+06
CC[C@H](C)[C@H](NC(=O)[C@@H](N)Cc1ccccc1)C(=O)N[C@@H](CCCCN)C(=O)O [Phe-Ile-Lys] (H-Phe-Ile-Lys-OH) | 7.83E+05
N[C@@H](CC(=O)O)C(=O)N[C@@H](Cc1ccccc1)C(=O)O [Asp-Phe] (H-Asp-Phe-OH) | 1.29E+08
CC(C)CC(N)C(=O)NC(C(=O)O)C(C)C (stereo not drawn) [Leu-Val] (H-Leu-Val-OH; configuration not given here) | 0.00E+00
CC(C)CC(NC(=O)C1CCCN1)C(=O)O (stereo not drawn) [Pro-Leu] (H-Pro-Leu-OH; configuration not given here) | 0.00E+00
N[C@@H](CC(=O)O)C(=O)N1CCC[C@H]1C(=O)O [Asp-Pro] (H-Asp-Pro-OH) | 2.09E+07
CSCC[C@H](NC(=O)[C@@H](N)C(C)C)C(=O)O [Val-Met] (H-Val-Met-OH) | 0.00E+00
NC(Cc1ccccc1)C(=O)N1CCCC1C(=O)O (stereo not drawn) [Phe-Pro] (H-Phe-Pro-OH; configuration not given here) | 3.02E+06
CC(C)[C@H](NC(=O)[C@@H](N)CO)C(=O)O [Ser-Val] (H-Ser-Val-OH) | 2.48E+07
